Experimental findings from patent publication US11873295B2, “Allosteric chromenone inhibitors of phosphoinositide 3-kinase (PI3K) for the treatment of disease” (Petra Pharma Corporation, priority 2021, dated 2024) are described below.

The target in experiment [1] is T1, human full length PIK3KA Wild-type (p110α/p85α complex) (Homo sapiens, UniProt P42336).
T1 construct: Recombinant, catalytically active human full length PIK3KA Wild-type and H1047R mutant were purchased as 1:1 complex; 6xHis (N); purchased EMD Millipore Sigma 14-602M
Nature of the experiment: PI3K-alpha kinase (PIK3CA) biochemical activity, wild-type, ADP-Glo. To be noted: PI3K-α (PIK3CA) biochemical. The source says:
(§1) PI3K-Alpha Kinase (PIK3CA) Activity, Wild-Type and H1047R Mutant and Determining IC50 Values for Inhibitors
(§2) Recombinant, catalytically active human full length PIK3KA Wild-type and H1047R mutant were purchased as 1:1 complex of N-terminal 6× his tagged p110α (catalytic) and untagged p85α (regulatory subunit) from EMD Millipore Sigma (cat. no. 14-602M and 14-792M, respectively). PIP2diC8 (Avanti Polar Lipids Inc., cat. no. 850185) or Soy PI (Avanti Polar Lipids Inc., cat. No. 840044P) was used as lipid substrate. PIP2diC8 or PI lyophilized powder was dissolved in milliQ water to a concentration of 1 mM just before use. 10 mM stock compounds in DMSO were serially diluted 1:3 to generate a 10-point curve and plated using an acoustic liquid handler system (Echo 550 series instrument, Labcyte). A 10× intermediate compound plate (200 uM starting compound concentration and 10% DMSO) was prepared before starting the reaction. A typical reaction mixture (50 uL) comprised 40 mM HEPES buffer, pH 7.4, 25 mM MgCl2, 0.01% v/v triton-X-100, 1% v/v DMSO, 20 mM NaCl, 1-5 nM WT or H1047R PI3K protein, 20 uM ATP, and 50 uM PIP2diC8 or Soy PI. 1% DMSO buffer alone without test compound was employed as MAX control (full activity in the absence of any inhibitor), and no enzyme control was used to determine the level of background Adenosine 5′-diphosphate (ADP) (MIN control). First, Wild-type (WT) and H1047R mutant protein in kinase buffer with all components except ATP were incubated with or without compound at 27° C. for 1 h. After the pre-incubation, the reaction was initiated by the addition of 20 uL of 50 uM ATP (20 uM final concentration). The reaction was allowed to proceed until about 10% conversion of ATP (2 uM ADP) at 27° C. After that time, 5 uL of reaction was mixed with 5 uL of ADP-Kinase Glo Reagent (ADP-Glo Kinase assay kit, Promega cat. no. V9102) supplemented with MgCl2 10 mM to stop the reaction and deplete the remaining ATP for 40 min at room temperature. Then, 10 uL of Kinase Detection Reagent (ADP-Glo Kinase assay kit, Promega cat. no. V9102) was added to simultaneously convert ADP to ATP and allow the newly synthesized ATP to be measured using a luciferase/luciferin reaction. After 30 min at room temperature the light generated was measured using a luminometer (EnVision plate reader, Perkin Elmer). Process data through Genedata-Screener tool. Relative IC50 values are determined using luminescence units by calculating percent inhibition with respect to on-plate “MIN” and “MAX” controls. Data was analyzed using a 4-parameter nonlinear logistic equation (four-parameter logistic concentration-response curve): Y=bot+[(top−bot)/1+(x/IC50)slope] where Y=% inhibition, X=concentration yielding y % inhibition, Bottom=minimum value of y attained by curve, Top=maximum value of y attained by curve and Slope=steepness of curve at IC50. % Inh=[(median Max−x/median Max−median Min)]·100 IC50: concentration of compound that reduces a given response (ligand binding, enzyme response) by 50%. IC50 relative: concentration giving half the compound's maximum response.
(§3) For IC50 values shown in Table A, “A” means IC50<0.5 μM; “B” means IC50 ranging between 0.5 μM and 1.0 μM; “C” means IC50 ranging between 1 μM and 5 μM; “D” means IC50 ranging between 5 μM and 10 μM; “E” means IC50>10 μM.
(In general: ADP-Glo turns the ADP formed in a reaction into a luminescent signal.)

Experiment [2] addresses T2, human full length PIK3KA H1047R mutant (p110α/p85α complex) (Homo sapiens, UniProt P42336, H1047R).
T2 construct: Recombinant, catalytically active human full length PIK3KA Wild-type and H1047R mutant were purchased as 1:1 complex; 6xHis (N); purchased EMD Millipore Sigma 14-792M
Nature of the experiment: PI3K-alpha kinase (PIK3CA) biochemical activity, H1047R mutant, ADP-Glo. The note with it: PI3K-α (PIK3CA) biochemical, H1047R mutant.
From the text: as §1, §2, §3

Where [3] appears, read: PIP2diC8 lipid substrate (footnote 1).

A value given as a limit tells only on which side of the number the result lay.

T2 sequence (P42336 whole entry H1047R): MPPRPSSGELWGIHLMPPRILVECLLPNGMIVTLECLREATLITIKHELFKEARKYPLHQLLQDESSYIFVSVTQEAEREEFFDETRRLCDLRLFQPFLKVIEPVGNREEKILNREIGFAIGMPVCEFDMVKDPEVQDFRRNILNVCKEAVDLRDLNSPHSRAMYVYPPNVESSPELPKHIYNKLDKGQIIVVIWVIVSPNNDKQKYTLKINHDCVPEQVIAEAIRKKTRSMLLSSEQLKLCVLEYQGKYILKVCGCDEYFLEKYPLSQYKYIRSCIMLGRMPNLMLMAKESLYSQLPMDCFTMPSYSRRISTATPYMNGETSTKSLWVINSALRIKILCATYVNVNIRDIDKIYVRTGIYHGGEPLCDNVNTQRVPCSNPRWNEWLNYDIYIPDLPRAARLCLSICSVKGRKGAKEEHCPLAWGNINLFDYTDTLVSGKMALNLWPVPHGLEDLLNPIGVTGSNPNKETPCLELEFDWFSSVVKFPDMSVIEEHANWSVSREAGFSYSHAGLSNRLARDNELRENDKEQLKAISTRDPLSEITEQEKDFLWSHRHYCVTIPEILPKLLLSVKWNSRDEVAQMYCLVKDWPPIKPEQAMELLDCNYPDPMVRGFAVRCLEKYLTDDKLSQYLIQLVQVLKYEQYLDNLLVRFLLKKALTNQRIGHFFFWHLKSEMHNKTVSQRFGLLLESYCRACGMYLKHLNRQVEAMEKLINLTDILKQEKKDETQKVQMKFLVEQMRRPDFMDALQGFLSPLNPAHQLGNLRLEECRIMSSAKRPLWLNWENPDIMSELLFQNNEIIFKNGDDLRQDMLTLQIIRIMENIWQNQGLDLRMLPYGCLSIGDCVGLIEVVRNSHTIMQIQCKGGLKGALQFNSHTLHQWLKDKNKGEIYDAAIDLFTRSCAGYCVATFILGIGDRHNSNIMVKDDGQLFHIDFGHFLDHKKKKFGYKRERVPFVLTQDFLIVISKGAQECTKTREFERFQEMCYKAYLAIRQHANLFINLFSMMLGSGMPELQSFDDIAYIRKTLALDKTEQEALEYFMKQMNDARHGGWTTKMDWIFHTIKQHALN
T2 sequence (P27986 whole entry partner): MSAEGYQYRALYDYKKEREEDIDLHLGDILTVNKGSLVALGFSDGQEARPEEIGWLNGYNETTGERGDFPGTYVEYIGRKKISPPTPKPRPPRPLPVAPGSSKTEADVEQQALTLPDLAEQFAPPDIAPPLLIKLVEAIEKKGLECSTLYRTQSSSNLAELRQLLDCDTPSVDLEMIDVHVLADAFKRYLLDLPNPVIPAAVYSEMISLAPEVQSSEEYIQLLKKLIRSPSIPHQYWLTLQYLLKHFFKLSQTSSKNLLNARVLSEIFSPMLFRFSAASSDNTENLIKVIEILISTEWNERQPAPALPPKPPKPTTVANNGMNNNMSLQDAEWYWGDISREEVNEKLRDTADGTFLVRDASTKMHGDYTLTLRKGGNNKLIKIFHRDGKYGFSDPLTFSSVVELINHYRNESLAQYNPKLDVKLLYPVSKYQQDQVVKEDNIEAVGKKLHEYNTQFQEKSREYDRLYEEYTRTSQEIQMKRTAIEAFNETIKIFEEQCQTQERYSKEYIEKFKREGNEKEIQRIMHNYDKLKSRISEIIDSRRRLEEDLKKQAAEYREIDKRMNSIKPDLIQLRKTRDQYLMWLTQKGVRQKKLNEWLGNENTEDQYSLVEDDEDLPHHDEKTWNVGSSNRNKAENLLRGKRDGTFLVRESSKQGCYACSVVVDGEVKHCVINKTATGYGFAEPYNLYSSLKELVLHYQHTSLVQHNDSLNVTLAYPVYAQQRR

The term IC50 denotes the concentration that gives 50% inhibition. Read a low IC50 as inhibition by little substance. With `Cc1cc(C(C)Nc2ccccc2C(=O)O)c2oc(-c3ccc(S(C)(=O)=O)cc3)cc(=O)c2c1` (single isomer, unassigned; isomer 2) [Example 48, 2-[1-[6-Methyl-2-(4-methylsulfonylphenyl)-4-oxo-chromen-8-yl]ethylamino]benzoic acid, Isomer 2], the IC50 in experiment [1] (Soy PI lipid substrate) is over 10 µM; in experiment [2] (Soy PI lipid substrate) it was under 0.5 µM.
The like results for `CC(Nc1ccccc1C(=O)O)c1cc(C(F)(F)F)cc2c(=O)cc(-c3ccccc3)oc12` (single isomer, unassigned; isomer 2) [Example 87, 2-[1-[4-Oxo-2-phenyl-6-(trifluoromethyl)-chromen-8-yl]ethylamino]benzoic acid, Isomer 2] were, in that order, 5 to 10 µM and under 0.5 µM.
In the case of `Cc1cc([C@@H](C)Nc2c(Cl)ccc(F)c2C(=O)O)c2oc(-c3ccccc3)c(C)c(=O)c2c1` [Example 65, 3-Chloro-2-[[(1R)-1-(3,6-dimethyl-4-oxo-2-phenyl-chromen-8-yl)ethyl]amino]-6-fluoro-benzoic acid], the IC50 in experiment [1] (Soy PI lipid substrate) and in experiment [2] (Soy PI lipid substrate) was over 10 µM in each case.
Turning to `Cc1cc(C(C)Nc2ccccc2C(=O)O)c2oc(-c3ccc(C(=O)N(C)C)cc3)cc(=O)c2c1` (centres unmarked) [Example 8, 2-[1-[2-[4-(Dimethylcarbamoyl)-phenyl]-6-methyl-4-oxo-chromen-8-yl]ethylamino]benzoic acid 2,2,2-trifluoroacetic acid], the IC50 was over 10 µM in experiment [1] (Soy PI lipid substrate) and under 0.5 µM in experiment [2] (Soy PI lipid substrate).
Turning to `Cc1cc([C@@H](C)Nc2ccccc2C(=O)O)c2oc(-c3ccccc3)cc(=O)c2c1` [Example 22, 2-[[(1R)-1-(6-Methyl-4-oxo-2-phenyl-chromen-8-yl)ethyl]amino]benzoic acid], the IC50 in experiment [1] (setting [3]) and in experiment [2] (setting [3]) was under 0.5 µM each time.
Consider `Cc1cc(C(C)Nc2ccc(Cl)nc2C(=O)O)c2oc(-c3ccccc3)c(I)c(=O)c2c1` (single isomer, unassigned; isomer 2) [Example 154, 6-Chloro-3-[1-(3-iodo-6-methyl-4-oxo-2-phenyl-chromen-8-yl)ethylamino]pyridine-2-carboxylic acid, Isomer 2], for which the IC50 in experiment [1] (Soy PI lipid substrate) was 0.5 to 1 µM; in experiment [2] (Soy PI lipid substrate), under 0.5 µM.
The like results for `C[C@@H](Nc1ccccc1C(=O)O)c1cc(F)cc2c(=O)cc(-c3ccccc3)oc12` [Example 24, 2-[[(1R)-1-(6-Fluoro-4-oxo-2-phenyl-chromen-8-yl)ethyl]amino]benzoic acid] were, in that order, 1 to 5 µM and under 0.5 µM.
Take `Cc1cc(C(C)Nc2cccc(F)c2C(=O)O)c2oc(-c3ccccc3F)c(C)c(=O)c2c1` (single isomer, unassigned; isomer 1) [Example 103, 2-Fluoro-6-[1-[2-(2-fluorophenyl)-3,6-dimethyl-4-oxo-chromen-8-yl]ethylamino]benzoic acid, Isomer 1]: the IC50 in experiment [1] (Soy PI lipid substrate) and in experiment [2] (Soy PI lipid substrate) was under 0.5 µM throughout.
Take `Cc1cc(C(C)Nc2ccccc2C(=O)O)c2oc(-c3ccc(N4CCCC4)cc3)cc(=O)c2c1` (single isomer, unassigned; isomer 1) [Example 54, 2-[1-[6-Methyl-4-oxo-2-(4-pyrrolidin-1-ylphenyl)chromen-8-yl]ethylamino]benzoic acid, Isomer 1]: the IC50 is over 10 µM in experiment [1] (Soy PI lipid substrate) and 0.5 to 1 µM in experiment [2] (Soy PI lipid substrate).
As to `Cc1cc([C@@H](C)Nc2ccc(C)nc2C(=O)O)c2oc(-c3ccccc3)cc(=O)c2c1` [Example 46, 6-Methyl-3-[[(1R)-1-(6-methyl-4-oxo-2-phenyl-chromen-8-yl)ethyl]amino]-pyridine-2-carboxylic acid], the 50% inhibitory concentration (IC50) in experiment [1] (Soy PI lipid substrate) is 5 to 10 µM; in experiment [2] (Soy PI lipid substrate), under 0.5 µM.
With `Cc1cc([C@@H](C)Nc2ccccc2C(=O)O)c2oc(-c3ccccc3)c(I)c(=O)c2c1` [Example 79, 2-[[(1R)-1-(3-Iodo-6-methyl-4-oxo-2-phenyl-chromen-8-yl)ethyl]amino]benzoic acid 2,2,2-trifluoroacetic acid], the IC50 in experiment [1] (Soy PI lipid substrate) was 0.5 to 1 µM; in experiment [2] (Soy PI lipid substrate), under 0.5 µM.
For the compound `Cc1cc([C@@H](C)Nc2cncnc2C(=O)O)c2oc(-c3ccccc3)c(C)c(=O)c2c1` [Example 74, 5-[[(1R)-1-(3,6-Dimethyl-4-oxo-2-phenyl-chromen-8-yl)ethyl]amino]pyrimidine-4-carboxylic acid], the IC50 is over 10 µM in experiment [1] (Soy PI lipid substrate) and under 0.5 µM in experiment [2] (Soy PI lipid substrate).
As to `Cc1cc(C(C)Nc2cccc(F)c2C(=O)O)c2oc(-c3ccccc3F)cc(=O)c2c1` (single isomer, unassigned; isomer 1) [Example 107, 2-Fluoro-6-[1-[2-(2-fluorophenyl)-6-methyl-4-oxo-chromen-8-yl]ethylamino]benzoic acid, Isomer 1], the results for the IC50 in experiment [1] (Soy PI lipid substrate) and in experiment [2] (Soy PI lipid substrate) were 1 to 5 µM and under 0.5 µM, respectively.
For the compound `Cc1cc([C@@H](C)Nc2ccccc2C(=O)O)c2oc(-c3cccc(F)c3)cc(=O)c2c1` [Example 18, 2-[[(1R)-1-[2-(3-Fluorophenyl)-6-methyl-4-oxo-chromen-8-yl]ethyl]amino]benzoic acid], the IC50 in experiment [1] (setting [3]) and in experiment [2] (setting [3]) was under 0.5 µM each time.
For the compound `CC(Nc1ccccc1C(=O)O)c1cc(C(F)(F)F)cc2c(=O)cc(-c3ccccc3)oc12` (single isomer, unassigned; isomer 1) [Example 86, 2-[1-[4-Oxo-2-phenyl-6-(trifluoromethyl)-chromen-8-yl]ethylamino]benzoic acid, Isomer 1], the IC50 in experiment [1] (Soy PI lipid substrate) is 5 to 10 µM; in experiment [2] (Soy PI lipid substrate) it was over 10 µM.
For `Cc1cc(C(C)Nc2ccccc2C(=O)O)c2oc(-c3ccc(C4(C#N)CC4)cc3)cc(=O)c2c1` (single isomer, unassigned; isomer 2) [Example 53, 2-[1-[2-[4-(1-Cyanocyclopropyl)-phenyl]-6-methyl-4-oxo-chromen-8-yl]ethylamino]benzoic acid, Isomer 2], in that order: 1 to 5 µM and under 0.5 µM.
In the case of `Cc1cc([C@@H](C)Nc2ccc(Cl)nc2C(=O)O)c2oc(-c3ccccc3)c(C(F)(F)F)c(=O)c2c1` [Example 139, 6-Chloro-3-[[(1R)-1-[6-methyl-4-oxo-2-phenyl-3-(trifluoromethyl)-chromen-8-yl]ethyl]amino]pyridine-2-carboxylic acid 2,2,2-trifluoroacetic acid], the IC50 in experiment [1] (Soy PI lipid substrate) and in experiment [2] (Soy PI lipid substrate) was under 0.5 µM each time.
For `Cc1c(-c2ccccc2)oc2c([C@@H](C)Nc3ccccc3C(=O)O)cc(F)cc2c1=O` [Example 72, 2-[[(1R)-1-(6-Fluoro-3-methyl-4-oxo-2-phenyl-chromen-8-yl)ethyl]amino]benzoic acid 2,2,2-trifluoroacetic acid], the IC50 in experiment [1] (Soy PI lipid substrate) and in experiment [2] (Soy PI lipid substrate) was 1 to 5 µM throughout.
Regarding `Cc1cc([C@@H](C)Nc2ccccc2C(=O)O)c2oc(-c3ccc(C#N)c(F)c3)cc(=O)c2c1` [Example 56, 2-[[(1R)-1-[2-(4-Cyano-3-fluoro-phenyl)-6-methyl-4-oxo-chromen-8-yl]ethyl]amino]benzoic acid 2,2,2-trifluoroacetic acid], the values for the IC50 in experiment [1] (Soy PI lipid substrate) and in experiment [2] (Soy PI lipid substrate) were 1 to 5 µM and under 0.5 µM, respectively.
